# Experimental data taken from patent publication US10112939B2, “Tied-back benzamide derivatives as potent rock inhibitors” (Bristol-Myers Squibb Company, priority 2014, dated 2018).
# Where “and” joins values, the source holds several entries; their conditions need not be identical. Equal entries are not always repeated. Where two headings read alike, the source gives them in different places.
# How the values were obtained:
# ROCK2 = ROCK2 (Homo sapiens (Human), UniProt O75116); assay: ROCK assay (peptide substrate phosphorylation, LABCHIP 3000 Reader); type: biochemical
# ROCK2, sequence (O75116 whole entry, species assumed): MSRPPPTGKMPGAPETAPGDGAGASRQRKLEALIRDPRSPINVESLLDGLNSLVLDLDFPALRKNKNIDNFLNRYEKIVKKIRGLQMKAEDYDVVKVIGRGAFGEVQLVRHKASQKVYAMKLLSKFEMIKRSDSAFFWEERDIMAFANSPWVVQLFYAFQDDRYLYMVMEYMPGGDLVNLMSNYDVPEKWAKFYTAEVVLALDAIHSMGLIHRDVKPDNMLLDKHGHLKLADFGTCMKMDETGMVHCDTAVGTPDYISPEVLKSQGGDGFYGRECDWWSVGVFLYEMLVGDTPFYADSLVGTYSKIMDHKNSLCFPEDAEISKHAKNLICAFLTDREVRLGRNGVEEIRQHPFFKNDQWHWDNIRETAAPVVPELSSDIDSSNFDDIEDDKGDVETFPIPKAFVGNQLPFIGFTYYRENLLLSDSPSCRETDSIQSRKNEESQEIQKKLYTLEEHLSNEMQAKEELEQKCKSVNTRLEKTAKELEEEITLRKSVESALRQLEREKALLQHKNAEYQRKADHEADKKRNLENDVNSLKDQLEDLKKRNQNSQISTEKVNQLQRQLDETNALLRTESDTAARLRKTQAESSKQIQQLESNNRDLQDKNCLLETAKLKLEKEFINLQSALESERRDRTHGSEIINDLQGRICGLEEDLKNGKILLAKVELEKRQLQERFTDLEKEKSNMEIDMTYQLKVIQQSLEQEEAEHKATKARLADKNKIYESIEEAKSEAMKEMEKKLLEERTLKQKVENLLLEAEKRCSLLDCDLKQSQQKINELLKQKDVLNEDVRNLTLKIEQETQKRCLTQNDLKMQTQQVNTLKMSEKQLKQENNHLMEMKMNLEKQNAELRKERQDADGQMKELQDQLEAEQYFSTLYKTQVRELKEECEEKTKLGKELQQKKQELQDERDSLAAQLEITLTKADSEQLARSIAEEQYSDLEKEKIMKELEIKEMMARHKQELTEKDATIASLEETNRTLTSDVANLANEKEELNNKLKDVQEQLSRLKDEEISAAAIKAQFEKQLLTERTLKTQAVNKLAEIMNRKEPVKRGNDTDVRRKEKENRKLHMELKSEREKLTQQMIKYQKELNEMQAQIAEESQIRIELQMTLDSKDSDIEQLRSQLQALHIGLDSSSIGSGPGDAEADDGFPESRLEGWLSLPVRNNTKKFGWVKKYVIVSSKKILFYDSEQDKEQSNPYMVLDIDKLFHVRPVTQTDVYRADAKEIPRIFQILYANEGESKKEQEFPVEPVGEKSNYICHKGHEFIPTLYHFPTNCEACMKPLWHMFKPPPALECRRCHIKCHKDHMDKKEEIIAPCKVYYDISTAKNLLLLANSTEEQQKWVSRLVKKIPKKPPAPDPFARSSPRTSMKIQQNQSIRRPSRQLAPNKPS
# Protocol: Compounds were dissolved in DMSO so that the final concentration of DMSO was <2%, and the reaction was initiated with Rho kinase variants. After incubation, the reaction was terminated by the addition of EDTA and the phosphorylated and non-phosphorylated peptides separated using a LABCHIP® 3000 Reader (Caliper Life Sciences). […] Compounds were tested in dose-response format, and the inhibition of kinase activity was calculated at each concentration of compound.
# [1] = tested on: neointimal formation in rats; conditions: balloon injury model; cited from earlier work
# Dahl salt-sensitive rats = conditions: rat, in vivo; cited from earlier work
# [2] = tested on: spontaneously hypertensive rat, renal hypertensive rat and deoxycortisone acetate salt hypertensive rat models; conditions: cited from earlier work
# [3] = tested on: IL-1 beta-induced coronary stenosis; conditions: long term treatment; cited from earlier work
# rat stroke model = conditions: in vivo; cited from earlier work
# [4] = 5 μM ATP, 1.5 μM peptide substrate
SMILES,IC50 (ROCK2; [4]),other results
"COc1cccc(C2CCCN2C(=O)c2ccc(-c3ccncc3F)c(OC)c2)c1 (stereo not shown) [Example 84, 3-fluoro-4-{2-methoxy-4-[2-(3-methoxyphenyl)pyrrolidine-1-carbonyl]phenyl}pyridine]",0.0241 µM,
"COc1cc(C(=O)N2CC(OC)C[C@@H]2c2cccc(C(=O)NCC3CC3)c2)ccc1-c1cn[nH]c1 (stereo partly drawn) [Example 86, N-(Cyclopropylmethyl)-3-[(2R)-4-methoxy-1-[3-methoxy-4-(1H-pyrazol-4-yl)benzoyl]pyrrolidin-2-yl]benzamide]",0.00542 µM,
"COc1cc(C(=O)N2CC(OC)C[C@@H]2c2cccc(C(=O)N(C)CC3CC3)c2)ccc1-c1cn[nH]c1 (stereo partly drawn) [Example 87, N-(Cyclopropylmethyl)-3-[(2R)-4-methoxy-1-[3-methoxy-4-(1H-pyrazol-4-yl)benzoyl]pyrrolidin-2-yl]-N-methylbenzamide]",0.461 µM,
"COc1cc(C(=O)N2C[C@](C)(O)C[C@@H]2c2cccc(C(=O)NCC3CC3)c2)ccc1-c1cn[nH]c1 [Example 88, N-(Cyclopropylmethyl)-3-[(2R,4R)-4-hydroxy-1-[3-methoxy-4-(1H-pyrazol-4-yl)benzoyl]-4-methylpyrrolidin-2-yl]benzamide]",0.0106 µM,
"COc1cc(C(=O)N2CC(OC(C)=O)C[C@@H]2c2cccc(S(C)(=O)=O)c2)ccc1-c1cn[nH]c1 (stereo partly drawn) [Example 89, (5R)-5-(3-Methanesulfonylphenyl)-1-[3-methoxy-4-(1H-pyrazol-4-yl)benzoyl]pyrrolidin-3-yl acetate]",0.784 µM,
"COc1cc(C(=O)N2CC(O)C[C@@H]2c2cccc(S(C)(=O)=O)c2)ccc1-c1cn[nH]c1 (stereo partly drawn) [Example 90, (5R)-5-(3-Methanesulfonylphenyl)-1-[3-methoxy-4-(1H-pyrazol-4-yl)benzoyl]pyrrolidin-3-ol]",0.086 µM,
"COc1cc(C(=O)N2C[C@H](O)C[C@@H]2c2ccccc2F)ccc1-c1cn[nH]c1 [Example 92, (3R,5R)-5-(2-Fluorophenyl)-1-[3-methoxy-4-(1H-pyrazol-4-yl)benzoyl] pyrrolidin-3-ol]",0.00803 µM,
"COc1cc(C(=O)N2C[C@@H](O)C[C@@H]2c2ccccc2F)ccc1-c1cn[nH]c1 [Example 93, (3S,5R)-5-(2-Fluorophenyl)-1-[3-methoxy-4-(1H-pyrazol-4-yl)benzoyl] pyrrolidin-3-ol]",0.00452 µM,
"O=C(c1ccc(-c2cn[nH]c2)c(OC(F)F)c1)N1C[C@H](O)C[C@@H]1c1ccccc1F [Example 94, (3R,5R)-1-[3-(Difluoromethoxy)-4-(1H-pyrazol-4-yl)benzoyl]-5-(2-fluorophenyl)pyrrolidin-3-ol]",0.0733 µM,
"O=C(c1ccc(-c2cn[nH]c2)c(OC(F)F)c1)N1C[C@@H](O)C[C@@H]1c1ccccc1F [Example 95, (3S,5R)-1-[3-(Difluoromethoxy)-4-(1H-pyrazol-4-yl)benzoyl]-5-(2-fluorophenyl)pyrrolidin-3-ol]",0.0441 µM and 0.0284 µM,
"N#Cc1cc(C(=O)N2C[C@H](O)C[C@@H]2c2ccccc2F)ccc1-c1cn[nH]c1 [Example 96, 5-[(2R,4R)-2-(2-Fluorophenyl)-4-hydroxypyrrolidine-1-carbonyl]-2-(1H-pyrazol-4-yl)benzonitrile]",,IC50 (ROCK2): 0.667 µM
"N#Cc1cc(C(=O)N2C[C@H](O)C[C@@H]2c2ccccc2F)ccc1-c1cn[nH]c1 [Example 97, 5-[(2R)-2-(2-Fluorophenyl)-4-hydroxypyrrolidine-1-carbonyl]-2-(1H-pyrazol-4-yl)benzonitrile]",0.721 µM,
"COc1cc(-c2cn[nH]c2)ccc1C(=O)N1C[C@H](O)C[C@@H]1c1ccccc1F [Example 98, (3R,5R)-5-(2-Fluorophenyl)-1-[2-methoxy-4-(1H-pyrazol-4-yl)benzoyl] pyrrolidin-3-ol]",0.723 µM,
"CS(=O)(=O)c1cccc([C@H]2CC(O)CN2C(=O)c2ccc(-c3ccnc4[nH]ccc34)cc2)c1 (stereo partly drawn) [Example 99, (5R)-5-(3-methanesulfonyl-phenyl)-1-(4-{1H-pyrrolo [2,3-b]pyridin-4-yl}benzoyl) pyrrolidin-3-ol]",0.614 µM,
"COc1cccc(C2CCCN2C(=O)c2ccc(-c3cn[nH]c3)c(C(C)O)c2)c1 (stereo not shown) [Example 100, 1-{5-[2-(3-Methoxyphenyl)pyrrolidine-1-carbonyl]-2-(1H-pyrazol-4-yl)phenyl}ethan-1-ol]",0.228 µM,
"CCc1cc(C(=O)N2CC(O)C[C@@H]2c2ccccc2F)ccc1-c1cn[nH]c1 (stereo partly drawn) [Example 101, (5R)-1-[3-Ethyl-4-(1H-pyrazol-4-yl)benzoyl]-5-(2-fluorophenyl) pyrrolidin-3-ol]",0.0651 µM,
"COc1cc(C(=O)N2CCCC2c2cccc(OCC(F)F)c2)ccc1-c1cn[nH]c1 (stereo not shown) [Example 102, 4-(4-{2-[3-(2,2-Difluoroethoxy)phenyl]pyrrolidine-1-carbonyl}-2-methoxyphenyl)-1H-pyrazole]",0.411 µM,
"COc1cc(C(=O)N2CCCC2c2cccc(OCc3cc(C)on3)c2)ccc1-c1cn[nH]c1 (stereo not shown) [Example 103, 3-(3-{1-[3-Methoxy-4-(1H-pyrazol-4-yl)benzoyl]pyrrolidin-2-yl}phenoxymethyl)-5-methyl-1,2-oxazole]",0.062 µM,
"COc1cc(C(=O)N2CCCC2c2cccc(OC3CCN(C)CC3)c2)ccc1-c1cn[nH]c1 (stereo not shown) [Example 104, 4-(3-{1-[3-Methoxy-4-(1H-pyrazol-4-yl)benzoyl]pyrrolidin-2-yl}phenoxy)-1-methylpiperidine]",1.39 µM,
"COc1cc(C(=O)N2CCCC2c2cccc(NC3CCN(C)CC3)c2)ccc1-c1cn[nH]c1 (stereo not shown) [Example 105, N-(3-{1-[3-Methoxy-4-(1H-pyrazol-4-yl)benzoyl]pyrrolidin-2-yl}phenyl)-1-methylpiperidin-4-amine]",0.278 µM,
"COc1cc(C(=O)N2C[C@@H](N)C[C@@H]2c2ccccc2F)ccc1-c1cn[nH]c1 [Example 106, (3S,5R)-5-(2-Fluorophenyl)-1-[3-methoxy-4-(1H-pyrazol-4-yl)benzoyl] pyrrolidin-3-amine]",0.00087 µM,
"COc1cc(C(=O)N2C[C@H](N)C[C@@H]2c2ccccc2F)ccc1-c1cn[nH]c1 [Example 107, (3R,5R)-5-(2-Fluorophenyl)-1-[3-methoxy-4-(1H-pyrazol-4-yl)benzoyl] pyrrolidin-3-amine]",0.00165 µM,
"COc1cc(C(=O)N2CC(O)C[C@@H]2c2ccc3cn[nH]c3c2)ccc1-c1cn[nH]c1 (stereo partly drawn) [Example 108, (5R)-5-(1H-Indazol-6-yl)-1-[3-methoxy-4-(1H-pyrazol-4-yl)benzoyl] pyrrolidin-3-ol]",0.00765 µM,
"COc1cc(C(=O)N2CC(O)C[C@@H]2c2ccc3c(I)n[nH]c3c2)ccc1-c1cn[nH]c1 (stereo partly drawn) [Example 109, (5R)-5-(3-Iodo-1H-indazol-6-yl)-1-[3-methoxy-4-(1H-pyrazol-4-yl)benzoyl]pyrrolidin-3-ol]",0.902 µM,
"COc1cc(C(=O)N2CCC[C@@H]2C(=O)Nc2ccccc2)ccc1-c1cn[nH]c1 [Example 110, (2R)-1-[3-Methoxy-4-(1H-pyrazol-4-yl)benzoyl]-N-phenylpyrrolidine-2-carboxamide]",0.463 µM,
"COc1cc(C(=O)N2CCC[C@@H]2C(=O)N2CCc3ccccc32)ccc1-c1cn[nH]c1 [Example 111, 1-[(2R)-1-[3-Methoxy-4-(1H-pyrazol-4-yl)benzoyl]pyrrolidine-2-carbonyl]-2,3-dihydro-1H-indole]",,IC50 (ROCK2): 0.504 µM
"CCNS(=O)(=O)c1cccc([C@H]2CCCN2C(=O)c2ccc(-c3cn[nH]c3)c(OC)c2)c1 [Example 112, N-Ethyl-3-[(2R)-1-[3-methoxy-4-(1H-pyrazol-4-yl)benzoyl]pyrrolidin-2-yl]benzene-1-sulfonamide]",0.0152 µM,
"C[C@@H](N)[C@H]1CC[C@H](C(=O)Nc2ccncc2)CC1 [Example Y-27632, Y-27632]",,"neointimal formation [1]: inhibited neointimal formation; ventricular hypertrophy, fibrosis and function (Dahl salt-sensitive rats): improve ventricular hypertrophy, fibrosis and function; blood pressure ([2]; control rats): only a minor effect on blood pressure; blood pressure ([2]; three rat models of hypertension): significantly decrease blood pressure"
O=S(=O)(c1cccc2cnccc12)N1CCCNCC1 [fasudil],,coronary constrictive remodeling [3]: promote a regression of coronary constrictive remodeling; coronary stenosis [3]: progressively reduce coronary stenosis; infarct size and neurologic deficit (rat stroke model): reduce both the infarct size and neurologic deficit
